Data published in ChEMBL document CHEMBL1201862, “PubChem BioAssay data set” (2004).
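Growth conditions: 96-well plates. Treatment: test compound, 48 hours, 5 concentrations. Analysis: linear interpolation between bracketing concentrations; unreached endpoints set to highest concentration. GI50 = concentration required for 50% inhibition of growth.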 Activity calls are given as the source filed them. No stated cut-off is given here; in the data, active = GI50 up to about 1.1 µM and inactive = higher.

Tests used:
Assay in all cases: NCI tumour cell line growth inhibition, 48 h
MOLT-4 = tested on: MOLT-4
NCI-H226 = tested on: NCI-H226
SK-MEL-28 = tested on: SK-MEL-28
A549 = tested on: A549
SN12C = tested on: SN12C
A498 = tested on: A498
MCF7 = tested on: MCF7
SK-MEL-5 = tested on: SK-MEL-5
OVCAR-3 = tested on: OVCAR-3
NCI-H23 = tested on: NCI-H23
PC-3 = tested on: PC-3
SNB-75 = tested on: SNB-75
NCI-H522 = tested on: NCI-H522
NCI-H460 = tested on: NCI-H460
786-0 = tested on: 786-0
TK-10 = tested on: TK-10
HT-29 = tested on: HT-29
IGROV-1 = tested on: IGROV-1
UACC-257 = tested on: UACC-257
KM-20L2 = tested on: KM-20L2

Measured: GI50

Oc1ccc(/C=N/CC2CCCN3CCCCC23)cc1 (stereo not given)
inactive: MOLT-4 27.4 µM | NCI-H226 21.6 µM | SK-MEL-28 22.5 µM | A549 27.3 µM | SN12C 19.1 µM | A498 26.5 µM | MCF7 18.3 µM | SK-MEL-5 20.5 µM | OVCAR-3 29.4 µM | NCI-H23 24.9 µM | PC-3 26.4 µM | SNB-75 51.8 µM | NCI-H522 17.9 µM | NCI-H460 25.1 µM | 786-0 17.9 µM | TK-10 23.4 µM | HT-29 16.6 µM | IGROV-1 24.2 µM | UACC-257 24.3 µM

CN(C)CCNC(=O)Cc1ccccc1Nc1c(Cl)cccc1Cl
inactive: MOLT-4 16 µM | NCI-H226 17.9 µM | SK-MEL-28 18.5 µM | A549 18 µM | SN12C 15.1 µM | SK-MEL-5 15 µM | OVCAR-3 17.2 µM | NCI-H23 18.4 µM | KM-20L2 4.31 µM | SNB-75 12.7 µM | NCI-H460 10 µM | 786-0 12.2 µM | TK-10 13.7 µM | HT-29 10.3 µM | IGROV-1 19.1 µM | UACC-257 12.8 µM

Cc1cc(SCC(=O)c2ccc(Br)cc2)cc(C)[o+]1
inactive: MOLT-4 17.4 µM | NCI-H226 31.3 µM | SK-MEL-28 13.8 µM | A549 31.7 µM | SN12C 39 µM | A498 27.3 µM | MCF7 19.3 µM | SK-MEL-5 18 µM | OVCAR-3 21.4 µM | NCI-H23 31.6 µM | PC-3 29.4 µM | SNB-75 20.3 µM | NCI-H522 21.6 µM | NCI-H460 25.5 µM | 786-0 33.5 µM | TK-10 35.1 µM | HT-29 25.1 µM | IGROV-1 37.4 µM | UACC-257 25.1 µM

C[C@@H]1C(=O)CC2C(C)(C)CCC[C@]2(C)[C@@]12CC[C@]1(C=COC1)O2 (stereo not given in full)
inactive: MOLT-4 16 µM | NCI-H226 91 µM | A549 36.1 µM | SN12C 18.7 µM | OVCAR-3 36.4 µM | KM-20L2 46.7 µM | NCI-H522 19.2 µM | NCI-H460 32.8 µM | 786-0 33.3 µM | HT-29 28.2 µM | IGROV-1 36.9 µM

O=C1SC(c2ccc(Cl)cc2)(c2ccc(Cl)cc2)c2ccccc21
inactive: MOLT-4 32.7 µM | NCI-H226 39.5 µM | SK-MEL-28 > 100 µM | A549 > 100 µM | SN12C > 100 µM | A498 > 100 µM | MCF7 48.8 µM | SK-MEL-5 52.8 µM | OVCAR-3 79.3 µM | NCI-H23 59.4 µM | PC-3 40.4 µM | SNB-75 > 100 µM | NCI-H522 70 µM | NCI-H460 63.1 µM | 786-0 > 100 µM | TK-10 > 100 µM | HT-29 38.5 µM | IGROV-1 > 100 µM | UACC-257 34.3 µM

O=C(CSCC(=O)N/N=C/c1cc(I)cc(I)c1O)N/N=C/c1cc(I)cc(I)c1O
inactive: MOLT-4 5.19 µM | NCI-H226 7.91 µM | SK-MEL-28 18.9 µM | A549 27.4 µM | SN12C 23.2 µM | A498 9.04 µM | MCF7 15.1 µM | SK-MEL-5 10.6 µM | OVCAR-3 27 µM | NCI-H23 11.6 µM | PC-3 32.3 µM | SNB-75 5.65 µM | NCI-H522 6.38 µM | NCI-H460 25.6 µM | 786-0 5.83 µM | TK-10 7.4 µM | HT-29 32.9 µM | IGROV-1 8.28 µM | UACC-257 22.4 µM

Cn1nc(-c2ccccc2)c(C(=O)/C=C/c2ccc(F)cc2)c(N2CCCCC2)c1=O
inactive: MOLT-4 2.63 µM | SK-MEL-28 3.79 µM | A549 5.13 µM | SN12C 8.39 µM | SK-MEL-5 5.73 µM | NCI-H23 4.19 µM | KM-20L2 5.18 µM | NCI-H522 5.9 µM | NCI-H460 4.83 µM | 786-0 4.62 µM | TK-10 17.8 µM | HT-29 5.32 µM | IGROV-1 11.5 µM

NS(=O)(=O)c1cc2c(cc1Cl)NC(C(=O)NNC(=O)c1ccncc1)=NS2(=O)=O
inactive: MOLT-4 > 100 µM | NCI-H226 > 100 µM | SK-MEL-28 > 100 µM | A549 > 100 µM | SN12C > 100 µM | SK-MEL-5 > 100 µM | OVCAR-3 > 100 µM | NCI-H23 > 100 µM | KM-20L2 > 100 µM | SNB-75 > 100 µM | NCI-H522 > 100 µM | NCI-H460 > 100 µM | 786-0 > 100 µM | TK-10 > 100 µM | HT-29 > 100 µM | IGROV-1 > 100 µM | UACC-257 > 100 µM

CCOc1ccc(NCC2CC/C(=C\C=C\c3ccccc3)C2=O)cc1 (stereo not given)
inactive: MOLT-4 5.2 µM | NCI-H226 44.7 µM | SK-MEL-28 16.4 µM | A549 42.1 µM | SN12C 16.6 µM | A498 28.6 µM | MCF7 3.18 µM | SK-MEL-5 16 µM | OVCAR-3 18 µM | NCI-H23 18 µM | PC-3 23.6 µM | SNB-75 23.2 µM | NCI-H522 8.61 µM | NCI-H460 32 µM | 786-0 5.25 µM | TK-10 19.9 µM | HT-29 13.5 µM | IGROV-1 12.5 µM | UACC-257 18.5 µM

COCOC1/C=C/CCCC#C[C@H](C)C(=O)CC1 (stereo not given in full)
inactive: MOLT-4 2.96 µM | NCI-H226 19.6 µM | SK-MEL-28 15.2 µM | A549 8.07 µM | SN12C 11.2 µM | A498 12.1 µM | MCF7 5.55 µM | SK-MEL-5 8.77 µM | OVCAR-3 6.12 µM | NCI-H23 5.97 µM | PC-3 8.69 µM | SNB-75 11.1 µM | NCI-H522 5.7 µM | NCI-H460 8.73 µM | 786-0 4.21 µM | TK-10 15.2 µM | HT-29 3.69 µM | IGROV-1 9.27 µM | UACC-257 6.05 µM

CC(C)NCC(O)COC(=O)c1cccs1 (stereo not given)
inactive: MOLT-4 > 100 µM | SK-MEL-28 > 100 µM | A549 > 100 µM | SN12C > 100 µM | SK-MEL-5 > 100 µM | OVCAR-3 > 100 µM | NCI-H23 > 100 µM | KM-20L2 > 100 µM | SNB-75 67.8 µM | NCI-H522 > 100 µM | NCI-H460 > 100 µM | 786-0 > 100 µM | TK-10 > 100 µM | HT-29 > 100 µM | IGROV-1 > 100 µM | UACC-257 > 100 µM

CC(C(=O)n1nnc2ccccc21)N(c1ccccc1)c1ccccc1 (stereo not given)
inactive: MOLT-4 99.5 µM | NCI-H226 87.7 µM | SK-MEL-28 > 100 µM | A549 56.9 µM | SN12C > 100 µM | SK-MEL-5 42.9 µM | OVCAR-3 66.7 µM | NCI-H23 56.8 µM | KM-20L2 > 100 µM | SNB-75 69.5 µM | NCI-H522 45.5 µM | NCI-H460 > 100 µM | 786-0 > 100 µM | TK-10 > 100 µM | HT-29 > 100 µM | IGROV-1 > 100 µM | UACC-257 72.4 µM

N=C(N)N/N=C\c1ccc(C2CCNCC2)cc1
inactive: MOLT-4 > 100 µM | NCI-H226 > 100 µM | SK-MEL-28 > 100 µM | A549 > 100 µM | SN12C > 100 µM | A498 > 100 µM | MCF7 > 100 µM | SK-MEL-5 > 100 µM | OVCAR-3 > 100 µM | NCI-H23 > 100 µM | PC-3 > 100 µM | SNB-75 > 100 µM | NCI-H522 > 100 µM | NCI-H460 > 100 µM | 786-0 > 100 µM | TK-10 > 100 µM | HT-29 > 100 µM | IGROV-1 > 100 µM | UACC-257 > 100 µM

Cc1ccc(S(=O)(=O)N/N=C2/CCC(C(C)(C)C)CC2Br)cc1 (stereo not given)
inactive: MOLT-4 20 µM | NCI-H226 17.8 µM | SK-MEL-28 19.6 µM | A549 34 µM | SN12C 17.3 µM | A498 48.6 µM | MCF7 22.7 µM | SK-MEL-5 15.5 µM | OVCAR-3 16.2 µM | NCI-H23 28 µM | PC-3 25.6 µM | SNB-75 27.4 µM | NCI-H522 18.2 µM | NCI-H460 34.1 µM | 786-0 31.2 µM | TK-10 31 µM | HT-29 29.4 µM | IGROV-1 38.6 µM | UACC-257 23 µM

CCN1CCC(CNC(=O)c2ccc(N)cc2)N1CC (stereo not given)
inactive: MOLT-4 > 100 µM | NCI-H226 > 100 µM | SK-MEL-28 > 100 µM | A549 > 100 µM | SN12C > 100 µM | A498 > 100 µM | MCF7 > 100 µM | SK-MEL-5 > 100 µM | OVCAR-3 > 100 µM | NCI-H23 > 100 µM | PC-3 > 100 µM | SNB-75 > 100 µM | NCI-H522 > 100 µM | NCI-H460 > 100 µM | 786-0 > 100 µM | TK-10 > 100 µM | HT-29 > 100 µM | IGROV-1 > 100 µM | UACC-257 > 100 µM

CN(C)c1n/c(=N/Cc2cccs2)ss1
inactive: MOLT-4 1.72 µM | NCI-H226 > 10 µM | SK-MEL-28 > 10 µM | A549 > 10 µM | SN12C > 10 µM | A498 > 10 µM | MCF7 > 10 µM | SK-MEL-5 > 10 µM | OVCAR-3 > 10 µM | NCI-H23 > 10 µM | PC-3 > 10 µM | SNB-75 > 10 µM | NCI-H522 2.11 µM | NCI-H460 > 10 µM | 786-0 9.98 µM | TK-10 > 10 µM | HT-29 > 10 µM | IGROV-1 > 10 µM | UACC-257 > 10 µM
